Reference: patent publication US6653318B1, “5-(E)-Bromovinyl uracil analogues and related pyrimidine nucleosides as anti-viral agents and methods of use” (Yale University, priority 1999, dated 2003)
Where two headings read alike, the source gives them in different places.

Columns and labels:
[1] = Cell cytotoxicity assay, cell growth; type: cell-based; details: human; CEM cells, three-day growth, 50% inhibition of cell growth
Method: (§1) Cell Cytotoxicity Assay. CEM cells are grown at 2.5×10^4 Cells per ml in RPM1 media supplemented with 20% dialyzed FBS. When cells double, they are seeded in 24-well plates at 1 ml/well. The tested drugs are added at various diluted dosage. After three-day growth at 37° C., 5% CO2, the cells are harvested and counted by using Coulter counter. Cytotoxicity IC50 is designated as the dosage that inhibits 50% of the cell growth compared to the untreated controls.

[2] = system: HSV-1; experiment: Virus growth inhibition assay, HSV plaque reduction; type: cell-based, Herpes Simplex virus
Method: (§2) Virus growth inhibition assay. Confluent virus permissive cells in 12-well plates are inoculated with the virus at 30˜40 pfu/well. After one-hour adsorption at 37° C., the inoculum is replaced with the medium containing 10% of dialyzed FBS and tested compounds at various dosages. Each dosage is duplicated. The infected cells are harvested at 72-hour postinfection. For HSV virus, the plaque reduction assay is performed to measure the virus growth. ID50 is designated as the dosage that inhibits 50% of plaque formation compared with untreated controls. For VZV and EBV, the infected cells are lysed by “freeze-thaw” and the lysate is treated with protease K and RNase. The DNA is then subjected to slot-blot as described previous (Yao, et al., Biochem. Pharmacol. 51: 941-947). The viral DNA is detected by hybridization with ^32P-labeled DNA fragment of viral specific gene. Autoradiographic results are quantitated by Personal Densitometer SI (Molecular Dynamics., Sunnyvale, Calif.). The same membrane is stripped and rehybridized with human β-actin gene fragment. The viral DNA amount is subsequently normalized by viral DNA/human actin DNA. The concentration of the tested compounds, which inhibit 50% of viral DNA synthesis compared to untreated control, is defined as IC50.

[3] = system: VZV; experiment: Virus growth inhibition assay, VZV viral DNA slot-blot; type: cell-based, Varicella-Zoster virus; details: read-out: IC50 VZV
Method: Virus growth inhibition assay. Confluent virus permissive cells in 12-well plates are inoculated with the virus at 30˜40 pfu/well. After one-hour adsorption at 37° C., the inoculum is replaced with the medium containing 10% of dialyzed FBS and tested compounds at various dosages. Each dosage is duplicated. The infected cells are harvested at 72-hour postinfection. For HSV virus, the plaque reduction assay is performed to measure the virus growth. […] For VZV and EBV, the infected cells are lysed by “freeze-thaw” and the lysate is treated with protease K and RNase. […] The viral DNA is detected by hybridization with ^32P-labeled DNA fragment of viral specific gene. Autoradiographic results are quantitated by Personal Densitometer SI (Molecular Dynamics., Sunnyvale, Calif.). The same membrane is stripped and rehybridized with human β-actin gene fragment. The viral DNA amount is subsequently normalized by viral DNA/human actin DNA.

[4] = system: FU catabolite amino acids; experiment: FU metabolites by 19F-NMR in mice after pretreatment with BV analog; type: in vivo; details: BDF1 mice, 20 mg/kg p.o. two hours before FU 200 mg/kg i.p., one hour after FU
Method: Two hours after injection, 5-Flurouracil (FU) at a concentration of 200 mg/kg was administered i.p. […] Consequently, the coadministration of any one or more of the β-L nucleoside compounds along with FU or an FU produrg in the treatment of cancer to enhance the effectiveness of these agents is meritorious and unexpected.

[5] = in humans; generally ranging from about 20-30 minutes; cited from earlier work
[6] = system: CEM cells; experiment: Cell cytotoxicity assay, cell growth; type: cell-based; details: three-day growth, 50% inhibition of cell growth
Method: as §1

[7] = system: EBV; experiment: Anti-EBV activity, EBV DNA slot blot in H1 cells; type: cell-based, Epstein Barr virus; details: concentration that inhibits 50% of virus growth, 5 days
Method: as §2
A high yield of EBV producing cell line H1 derived from human P3HR1 cells was used in this study. Cells were cultured in RPMI medium supplemented with 10% dialyzed fetal bovine serum and 100 μg/ml Kanamycin and were grown at 37° C. in a humidified incubator containing 5% CO2.
H1 cells were maintained in logarithmic phase of growth for two days prior to the initiation of treatment. The H1 cells were seeded in 24 well plates at the density of 2×10^5 cells per well in 2 ml of fresh medium with or without drug treatment and were incubated at 37° C. for 5 days. Following the period of drug treatment the cells were pelleted and used to determine the inhibitory effect of drug on EBV DNA by slot blot assay.
A total of 4×10^5 H1 cells treated with the various nucleoside analogs (as set forth below) were lysed in 400 μl of 10 mM Tris-HCl (pH 7.5) solution by freezing and thawing 3 times. The cell lysate was treated with RNAase A (at a final concentration of 50 μg/ml) at 37° C. for 30 minutes and then with proteinase K (at a final concentration of 100 μg/ml) at 55° C. for 2 hr. The samples were denatured by adjusting the final concentration to 0.4N NaOH/10 mM EDTA at pH 8.2. After heating for 10 minutes in a water bath at 100° C., the samples were spotted onto positively charged nylon membrane using a manifold. […] The amount of EBV DNA in treated H1 cells was determined according to the ratio of EBV DNA to Alu DNA in comparison with non-treatment control H1 cells. […]

[8] = Human alphaherpesvirus 1, concentration that inhibits 50% of virus growth
[9] = Human alphaherpesvirus 3, concentration that inhibits 50% of virus growth, viral DNA, 72-hour postinfection
[10] = concentration that inhibits 50% of virus growth, viral DNA, 72-hour postinfection
[11] = concentration that inhibits 50% of virus growth
[12] = human gammaherpesvirus 4, 120 h

IC50 [3, 9] [µM] | SMILES | IC50 at 3 days [1] [µM] | IC50 [2, 8] [µM] | further results
 | Nc1nc2c(ncn2COCCO)c(=O)[nH]1 [Acyclovir, reference compound] | > 100 | 13.6 | 
 | O=c1[nH]c(=O)n([C@H]2C[C@H](O)[C@@H](CO)O2)cc1/C=C/Br [D-BVDU, (E)-5-(2-bromovinyl)-2′-deoxyuridine, reference compound] | > 100 |  | IC50 ([3]; Human alphaherpesvirus 3, 72 h): 0.05 µM
0.0007 | O=c1[nH]c(=O)n([C@@H]2O[C@H](CO)[C@@H](O)[C@@H]2O)cc1/C=C/Br [D-ara-BVU, 1-β-D-arabinofuranosyl-(E)-5-(2-bromovinyl)uracil, reference compound] | > 100 |  | effect on FU catabolite amino acids / break-down of FU (in words) [4]: decreased from catabolite amino acids
 | O=c1[nH]cc(F)c(=O)[nH]1 [FU, 5-fluorouracil] |  |  | half-life of FU [5]: approximately 25 minutes
> 30 | O=c1[nH]c(=O)n([C@H]2O[C@@H](CO)[C@H](O)[C@@H]2F)cc1/C=C/Br [L-BV2′F-dU, E-5-(2-Bromovinyl)-1-(2-deoxy-2-fluoro-β-L-ribofuranosyl) uracil] | > 100 | > 50 | 
 | O=c1[nH]c(=O)n([C@@H]2C[C@@H](O)[C@H](CO)O2)cc1/C=C/Br [L-BVDU, E-5-(2-Bromovinyl)-2′-deoxy-L-uridine] |  |  | IC50 [6]: > 100 µM; IC50 [3, 10]: > 100 µM
 | O=c1[nH]c(=O)n([C@@H]2CO[C@H](CO)O2)cc1Br [L-BrOddU, reference compound] |  |  | IC50 [7]: 0.2 µM; IC50 [6]: > 100 µM; IC50 [2, 11]: > 100 µM; IC50 [3, 10]: > 30 µM
 | O=c1[nH]c(=O)n([C@@H]2CO[C@H](CO)O2)cc1I [L-IOddU, reference compound] |  |  | IC50 [7]: 0.1 µM; IC50 [6]: > 100 µM; IC50 [2, 11]: 70 µM; IC50 [3, 10]: 17 µM
> 30 | O=c1[nH]c(=O)n([C@H]2CO[C@H](CO)O2)cc1/C=C/Cl [L-α-ClVOddU, (2S,5R)-E-5-(2-Chlorovinyl)-1-[2-(hydroxymethyl)-1,3-dioxolan-5-yl]uracil] | > 100 | > 50 | melting point: 101 to 102 °C
> 30 | O=c1[nH]c(=O)n([C@H]2CO[C@H](CO)O2)cc1/C=C/I [L-α-IVOddU, (2S,5R)-E-5-(2-Iodovinyl)-1-[2-(hydroxymethyl)-1,3-dioxolan-5-yl]uracil] | > 100 | > 50 | melting point: 60 °C (dec.)
12.5 | O=c1[nH]c(=O)n([C@@H]2CS[C@H](CO)O2)cc1/C=C/Br [L-β-BVSddU, (2R,5S)-E-5-(2-Bromovinyl)-1-(2-hydroxymethyl-1,3-oxathiolan-5-yl)uracil] | > 100 |  | IC50 [7, 12]: > 50 µM
0.15 | O=c1[nH]c(=O)n([C@@H]2CO[C@H](CO)O2)cc1/C=C/Cl [L-β-ClVOdd, (2S,5S)-E-5-(2-Chlorovinyl)-1-[2-(hydroxymethyl)-1,3-dioxolan-5-yl]uracil] | > 100 | 18 | 
0.035 | O=c1[nH]c(=O)n([C@@H]2CO[C@H](CO)O2)cc1/C=C/I [L-β-IVOddU, (2S,5S)-E-5-(2-Iodovinyl)-1-[2-(hydroxymethyl)-1,3-dioxolan-5-yl]uracil] | > 100 | 33 | melting point: 162 °C (dec.); IC50 [7, 12]: 4.1 µM
 | Nc1nc(O)c2ncn(CCC(CO)CO)c2n1 [Pencyclovir, reference compound] |  |  | IC50 [6]: > 100 µM; IC50 [2, 11]: 18 µM; IC50 [3, 10]: 0.14 µM

SMILES | IC50 [3, 9] [µM] | IC50 at 3 days [1] [µM] | IC50 [2, 8] [µM] | further results
O=c1[nH]c(=O)n([C@@H]2CO[C@@H](CO)O2)cc1/C=C/Br [D-α-BVOddU, (2R,5S)-E-5-(2-Bromovinyl)-1-[2-(hydroxymethyl)-1,3-dioxolan-5-yl]uracil] | > 30 | > 100 | > 50 | 
O=c1[nH]c(=O)n([C@H]2CO[C@@H](CO)O2)cc1/C=C/Br [D-β-BVOddU, (2R,5R)-E-5-(2-Bromovinyl)-1-[2-(hydroxymethyl)-1,3-dioxolan-5-yl]uracil] | 26 | > 100 | > 50 | 
O=c1[nH]c(=O)n([C@H]2CO[C@H](CO)O2)cc1/C=C/Br [L-α-BVOddU, (2S,5R)-E-5-(2-Bromovinyl)-1-[2-(hydroxymethyl)-1,3-dioxolan-5-yl]uracil] | > 30 | > 100 | > 50 | 
O=c1[nH]c(=O)n([C@@H]2CO[C@H](CO)O2)cc1/C=C/Br [L-β-BVOddU, (2S,5S)-E-5-(2-Bromovinyl)-1-[2-(hydroxymethyl)-1,3-dioxolan-5-yl]uracil] | 0.07 | > 100 | 36 | inhibition of FU catabolite amino acids [4]: ~100%
